Where a name gives a salt, the structure may show the parent alone. Read-outs that look alike come from different tables or passages of the source.
Tests used:
5-HT2C receptor [1] = molecular target: T1, 5-HT2C receptor (Homo sapiens, UniProt P28335); assay: 5-HT receptor radioligand binding affinity assay, 2C; design: expressed in transfected cells; conditions: Table 2
T1 sequence (P28335 33-458): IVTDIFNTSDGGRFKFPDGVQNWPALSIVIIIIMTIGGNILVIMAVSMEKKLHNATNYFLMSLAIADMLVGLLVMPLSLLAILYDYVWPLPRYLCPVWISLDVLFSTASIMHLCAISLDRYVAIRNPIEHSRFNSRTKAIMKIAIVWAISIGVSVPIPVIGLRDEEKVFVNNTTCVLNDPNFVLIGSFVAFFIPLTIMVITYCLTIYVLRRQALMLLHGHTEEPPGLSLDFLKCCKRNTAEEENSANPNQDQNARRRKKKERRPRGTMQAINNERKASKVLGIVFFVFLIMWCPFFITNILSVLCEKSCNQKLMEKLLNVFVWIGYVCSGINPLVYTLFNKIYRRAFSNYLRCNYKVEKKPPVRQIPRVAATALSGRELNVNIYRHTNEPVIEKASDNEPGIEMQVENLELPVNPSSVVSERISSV
Method: Eleven dilutions (5 x assay concentration) of the test and reference compounds (Table S1) were prepared in standard binding buffer (50 mM tris(hydroxymethyl)-aminomethane–HCl (Tris-HCl), 10 mM MgCl2, 1 mM ethylenediaminetetraacetate (EDTA), pH 7.4) by serial dilution: 0.05 nM, 0.5 nM, 1.5 nM, 5 nM, 15 nM, 50 nM, 150 nM, 500 nM, 1.5 μM, 5 μM, and 50 μM. The radioligand (Table S1) was diluted to five times the assay concentration in standard binding buffer. Aliquots (50 μL) of the radioligand were dispensed into the wells of a 96-well plate containing 100 μL of standard binding buffer. Triplicate aliquots (50 μL) of the test and reference compound dilutions were then added. Finally, crude membrane fractions (50 μL) of cells (HEK293 or CHO) expressing human recombinant receptors were dispensed into each well. A total 250 μL of the reaction mixtures was incubated at room temperature and shielded from light for 1.5 h, then harvested by rapid filtration onto Whatman GF/B glass fiber filters presoaked with 0.3% polyethyleneimine, by using a 96-well Brandel harvester.
Four rapid washes were performed with chilled standard binding buffer (500 μL) to decrease nonspecific binding. Filters were placed in 6 mL scintillation tubes and allowed to dry overnight. The next day, 4 ml of EcoScint scintillation cocktail (National Diagnostics) was added to each tube. The tubes were capped, labeled, and counted by liquid scintillation counting. The filter mats were dried, and the scintillant was melted onto the filters, then the radioactivity retained on the filters was counted in a Microbeta scintillation counter. The IC50 values were obtained by using the Prism 4.0 program (GraphPad Software, San Diego, CA) and converted into Ki values. Each compound was tested in triplicate at least.
3. Radioligands and reference compounds for binding assay
Table S1. A list of 5-HT receptor radioligands and reference compounds for binding assay.
Receptor subtype Radioligand Reference compound
1A [3H]8-OH-DPAT Methysergide
2A [3H]Ketanserin Chlorpromazine
2C [3H]Mesulergine Chlorpromazine

5-HT2C receptor [2] = molecular target: T1, 5-HT2C receptor; assay: 5-HT2C receptor cell-based functional assay (agonist mode, fluorescence-based); conditions: for %activation: Table 2, serotonin as reference compound
Method: The synthesized compounds were tested in agonist mode with the 5-HT2C receptor assay using recombinant human HEK-293 cells serviced by either Eurofins Cerep or DGMIF (Daegu-Gyeongbuk Medical Innovation Foundation). All the experiments were duplicated.

[3] = HEK293, read-out: %activation (10 μM), 10 μM, recombinant human HEK-293 cells, Table 1
[4] = HEK293, read-out: %activation (10 μM)

C[C@@H](Oc1nc(N2CCC3(CCNC3)C2)ncc1F)c1ccc(F)cc1 (stereo partly drawn) [10g, 2-(5-fluoro-4-((R)-1-(4-fluorophenyl)ethoxy)pyrimidin-2-yl)-2,7-diazaspiro[4.4]nonane]
Ki (5-HT2C receptor [1]): 232 nM

Fc1ccc(COc2cnc(N3CCNCC3)nc2)cc1 [9e, 4-(5-((4-fluorobenzyl)oxy)pyrimidin-2-yl)piperazin-1-ium∙hydrochloride]
activation at 10 µM (5-HT2C receptor [2]; [3]): 18%

C[C@H]1CNCCc2ccc(Cl)cc21 [Lorcaserin (1), Lorcaserin, reference compound]
%activation value at 1 μM (5-HT2C receptor [2]; 1 μM, Table 1 footnote a): 94^a %

C[C@@H](Oc1nc(N[C@@H]2CCNC2)ncc1F)c1cccc(F)c1 [10d, 5-fluoro-4-((R)-1-(3-fluorophenyl)ethoxy)-N-((R)-pyrrolidin-3-yl)pyrimidin-2-amine]
%activation (5-HT2C receptor [2]): 16.4% | Ki (5-HT2C receptor [1]): 119 nM

C[C@@H]1CNCCN1c1ncc(OCc2cccc(F)c2)cn1 [9h, (R)-4-(5-((3-fluorobenzyl)oxy)pyrimidin-2-yl)-3-methylpiperazine-1-ium∙hydrochloride]
activation at 10 µM (5-HT2C receptor [2]; [4]): 48%

C[C@@H]1CNCCN1c1ncc(OCc2ccc(F)cc2)cn1 [9k, (R)-4-(5-((4-fluorobenzyl)oxy)pyrimidin-2-yl)-3-methylpiperazin-1-ium∙hydrochloride]
activation at 10 µM (5-HT2C receptor [2]; [4]): 48%

Fc1cccc(CCOc2cnc(N3CCNCC3)nc2)c1 [9c]
activation at 10 µM (5-HT2C receptor [2]; [3]): 15%

Fc1ccc(COc2cnc(N3CCCNCC3)nc2)cc1 [9q, 4-(5-((4-fluorobenzyl)oxy)pyrimidin-2-yl)-1,4-diazepan-1-ium∙hydrochloride]
activation at 10 µM (5-HT2C receptor [2]; [4]): 16%

Fc1ccc(CCOc2cnc(N3CCCNCC3)nc2)cc1 [9r]
activation at 10 µM (5-HT2C receptor [2]; [4]): -1%

Fc1cccc(COc2cnc(N3CCCNCC3)nc2)c1 [9n, 4-(5-((3-fluorobenzyl)oxy)pyrimidin-2-yl)-1,4-diazepan-1-ium∙hydrochloride]
activation at 10 µM (5-HT2C receptor [2]; [4]): -1%

C[C@@H](Oc1nc(N[C@@H]2CCNC2)ncc1F)c1ccc(F)cc1 [10i, 5-fluoro-4-((R)-1-(4-fluorophenyl)ethoxy)-N-((R)-pyrrolidin-3-yl)pyrimidin-2-amine]
Ki (5-HT2C receptor [1]): 120 nM

Fc1cccc(Oc2cnc(N3CCNCC3)nc2)c1 [9a]
activation at 10 µM (5-HT2C receptor [2]; [3]): 7%

C[C@@H]1CNCCN1c1ncc(OCCc2ccc(F)cc2)cn1 [9l]
activation at 10 µM (5-HT2C receptor [2]; [4]): 32%

C[C@@H](Oc1nc(N2C[C@H]3CNC[C@H]3C2)ncc1F)c1ccc(F)cc1 [10h, (3aR,6aS)-2-(5-fluoro-4-((R)-1-(4-fluorophenyl)ethoxy)pyrimidin-2-yl)octahydropyrrolo[3,4-c]pyrrole]
%activation (5-HT2C receptor [2]): 10.1% | Ki (5-HT2C receptor [1]): 466 nM
